Results published in patent US7202048B2, “Onset of force development as a marker of thrombin generation” (Hemodyne, Inc., priority 2002, dated 2007).
“Also recorded” adds a separate entry of the source.

Experiments:
Format in all cases: cell-based, human
normal whole blood [1] = assay: Clot elastic modulus (CEM) in batroxobin/calcium-clotted whole blood (Hemodyne); conditions: 1200 seconds
Protocol: (§1) The patients and normal controls in this study were enrolled under a series of protocols approved by the Institutional Review Board for Human Studies of Virginia Commonwealth University. Written consent was obtained from each volunteer. Blood was obtained via aseptic venipuncture into evacuated tubes containing 3.2% sodium citrate.
(§2) Whole blood clot formation was induced by the addition of CaCl2 or a combination of CaCl2 and batroxobin (0.21 μg/ml). Platelet contractile force development and clot elastic modulus were measured for 1200 seconds.
Clot elastic modulus was measured by applying a downward force of known magnitude to the upper plate of the Hemodyne apparatus (9). The amount of downward displacement caused by the force was measured. The ratio of downward force (stress) to downward displacement (strain) was used to calculate the elastic modulus. Stress equals the force applied divided by the area of application and strain is the degree of shape change induced by the applied force.

normal whole blood [2] = assay: Thrombin generation time (TGT), onset of PCF after calcium and batroxobin
Protocol: FIG. 1. Determination of the thrombin generation time (TGT) from the kinetics of platelet contractile force (PCF) development after addition of calcium (10 mM final) and batroxobin (0.21 μg/ml final) to 700 μl of citrated (3.2%) whole blood at time zero. The TGT is taken to be the initial inflection point of the PCF curve, ie. the moment the PCF first begins to increase.
as §1, §2
Citrated blood clotted with batroxobin, or other similar enzymes (e.g., reptilase), and calcium develops PCF. […] During this time period, thrombin is generated by re-calcification. Since the fibrin network is in place prior to the generation of thrombin, PCF becomes apparent as soon as a small amount of thrombin is generated (FIG. 1). Thus, the inflection or take off point in the PCF curve serves as a marker of thrombin generation in the batroxobin mediated assay. For ease in identification, the first derivative of the curve in FIG. 1 will provide a sharp break where the curve increases (TGT being at the spike). The instrumentation used for the analysis, such as that shown in FIG. 9, can provide the output of FIG. 1 or the first derivative for identification of TGT, or, alternatively, the output could simply be an indicator light array indicating when the TGT is in the normal range or outside of the normal range.
We designate the time between calcium addition and initial PCF development the Thrombin Generation Time (TGT). Similar results can be obtained without using a snake venom enzyme if one simply recalcifies the plasma sample. Since thrombin generation must be followed by fibrin clot formation before PCF can begin to occur in the recalcification assay, the lag phase tends to be longer and more variable. Similar assays termed reptilase clot retractions were shown in the early seventies to be sensitive to a variety of antiplatelet and anticoagulant agents (10).

normal whole blood [3] = assay: Platelet contractile force (PCF) in batroxobin/calcium-clotted whole blood (Hemodyne); conditions: for PCF: 1200 seconds
Protocol: as §1, §2
The Hemodyne® hemostasis analyzer (Hemodyne, Inc., Richmond, Va., USA) measures forces generated by platelets within a clot formed between a thermostated cup and parallel upper plate (7,8). Before clotting, the upper plate is centered above the cup and lowered into the sample. As the clot forms, it attaches to the inner walls of the cup and the bottom of the upper plate. The entire sample volume is contained between the upper and lower surfaces. Once fibrin is formed, platelets within the network pull fibrin strands inward transmitting force through the network to the surfaces to which the clot is adherent. Force measurement is accomplished utilizing a transducer coupled to the upper plate. As platelets contract, the transducer produces an electrical output proportional to the amount of force generated. The transducer output is continuously recorded.

[4] = 0.165 U/ml added to normal whole blood
[5] = 0.330 U/ml added to normal whole blood
[6] = 0.660 U/ml added to normal whole blood
[7] = 1.320 U/ml added to normal whole blood
[8] = increasing concentrations in normal whole blood
[9] = bivalirudin 3.5 μg/ml in normal whole blood

## Hirudin
Normal whole blood [1]; [4]
  CEM: 12.34 Kdynes/cm^2
Normal whole blood [1]; [5]
  CEM: 11.21 Kdynes/cm^2
Normal whole blood [1]; [6]
  CEM: 6.50 Kdynes/cm^2
Normal whole blood [1]; [7]
  CEM: 0.73 Kdynes/cm^2
Normal whole blood [2]; [4]
  TGT: 420 s
Normal whole blood [2]; [5]
  TGT: 480 s
Normal whole blood [2]; [6]
  TGT: 560 s
Normal whole blood [2]; [7]
  TGT: >1200 s
Normal whole blood [2]; [8]
  Effect on TGT: prolongs; also recorded: dose depend prolongation
Normal whole blood [3]; [4]
  PCF: 4.01 Kdynes
Normal whole blood [3]; [5]
  PCF: 3.57 Kdynes
Normal whole blood [3]; [6]
  PCF: 1.80 Kdynes
Normal whole blood [3]; [7]
  PCF: 0.70 Kdynes
Normal whole blood [3]; [8]
  Effect on PCF: declines; also recorded: reduction

## bivalirudin
Normal whole blood [2]; [9]
  Effect on TGT: prolongs
Normal whole blood [3]; [9]
  Effect on PCF: lower; also recorded: decreases
